Assay results published in patent US10688143B2, “Composition containing extract or fraction of genus Justicia plant” (priority 2014, dated 2020).
Where two headings read alike, the source gives them in different places.

How the values were obtained:
[1] = test system: U266B1 cells; assay: Inhibition of IgE antibody secretion in U266B1 cells (IgE ELISA); assay type: cell-based
Method: The U266B1 cells used were purchased from the American Tissue Cell Culture (ATCC # TIB-196). Specifically, U266B1 cells were diluted in RPMI medium containing 15% fetal bovine serum (FBS) and antibiotics (100 U/mL of penicillin and 100 μg/mL of streptomycin) at a concentration of 2×10^5 cells/mL, and then the dilution was dispensed in a 24-well plate at a concentration of 400 μl/well and in a 96-well plate at a concentration of 100 μl/well, and incubated in a 5% CO2 incubator at 37° C. for 72 hours.
The U266B1 cells were treated with 5 mg/mL of each of the Justicia procumbens L. extracts and fractions (prepared in Preparation Examples 1 and 2 and shown in Tables 1 to 5). The medium in the 24-well plate was used to measure IgE antibody secretion, and the 96-well plate was used to measure cytotoxicity.
For measurement of IgE antibody secretion, the medium in the 24-well plate was collected and centrifuged at 125×g for 5 minutes to remove debris. 100 g of the medium was diluted 10-fold, and then the degree of IgE secretion was measured using IgE enzyme-linked immonosorbent assay (ELISA, Komabiotech Inc).

[2] = test system: MC/9 mouse mast cells; assay: Degranulation inhibition (β-hexosaminidase secretion) in MC/9 mast cells induced with PMA/A23187; assay type: cell-based
Method: (§1) MC/9 mouse mast cells were purchased from the American Tissue Cell Culture (ATCC # CRL-8306), and RBL-2H3 rat basophilic cells were purchased from the Korean Cell Link Bank (KCLB #22256). MC/9 mast cells and RBL-2H3 basophils were diluted at concentrations of 2×10^6 cells/mL and 5×10^5 cells/mL, respectively, and 400 μl of each of the dilutions was dispensed into each well of 24-well plates. Each well was pretreated with 10 μg/mL or 20 μg/mL of each of the extracts and fractions (prepared in Preparation Examples 1 and 2 and shown in Tables 1 to 5 above) for 30 minutes, and then degranulation of the cells was induced with 200 nM PMA/10 mM A23187 for 1 hour. […] The absorbance at 405 nm was measured, and β-hexosaminidase secretion (%) was calculated using the following equation 2: β-hexosaminidase secretion (%)={absorbance of medium/(absorbance of cell lysate+absorbance of medium)}×100 Equation 2
(§2) Based on β-hexosaminidase secretion (%) obtained using equation 2 above, the degranulation inhibitory ability of each of the Justicia procumbens L. extracts was calculated using the following equation 3 (β-heXo: β-hexosaminidase): Degranulation inhibitory ability (%)={(β-hexo secretion % of test group−β-hexo secretion % of normal group)/(β-hexo secretion % of control group−β-hexo secretion % of normal group)}×100 Equation 3

[3] = test system: RBL-2H3 rat basophilic cells; assay: Degranulation inhibition (β-hexosaminidase secretion) in RBL-2H3 basophils induced with PMA/A23187; assay type: cell-based
Method: as §1, §2

[4] = test system: Balb/c mouse rhinitis models; assay: Inhibition of IgE secretion in Balb/c mouse rhinitis models (ovalbumin); assay type: in vivo; details: extract 200 mg/kg oral daily for 1 week, dexamethasone 3 mg/kg intraperitoneal
Method: Specifically, 5-week-old Balb/c mice were purchased and acclimated for 1 week. On 0, 7 and 14 days of one week of acclimation, the mice were systematically sensitized by intraperitoneally injecting 0.1% ovalbumin (OVA: 1 mg/mL, Al(OH)3: 20 mg/ml) in an amount of 100 μl/mouse. […] As a positive control, 3 mg/kg of dexamethasone was intraperitoneally administered. After 1 hour, 0.4% ovalbumin solution was dropped into the nasal cavity. In the afternoon, 0.4% ovalbumin solution was dropped once more into the nasal cavity. […] The inhibition (%) of IgE secretion was calculated using the following equation 4: Inhibition (%) of secretion=100−{(concentration in test group−concentration in normal group)/(concentration in ovalbumin-induced group−concentration in normal group)}×100 Equation 4

[5] = test system: Balb/c mouse asthma models; assay: Inhibition of asthma in Balb/c mouse asthma models (ovalbumin): serum IgE, BALF IL-4, IL-5, inflammatory cells; assay type: in vivo; details: extracts 200 mg/kg oral daily for 10 days, dexamethasone 3 mg/kg intraperitoneal
Method: 5-week-old Balb/c mice were purchased and acclimated for 1 week. On 0 and 14 days of 1 week of acclimation, the mice were systematically sensitized by intraperitoneally administering 0.1% ovalbumin (OVA: 1 mg/mL, Al(OH)3: 20 mg/mL) in an amount of 100 μl/mouse. […] As a positive control, 3 mg/kg of dexamethasone was administered intraperitoneally. After one hour, 0.2% ovalbumin solution was sprayed and inhaled into the mice for 1 hour by use of a nebulizer (PARI Boy SX, Germany GmbH). 5 hours after final sensitization (30 days), the mice were biopsied, and whole blood was sampled from the mice and centrifuged at 12000 rpm for 10 minutes to separate serum. In addition, the lung tissue was isolated from each mouse and flushed with 1 mL of phosphate buffered saline through tracheostomy to collect bronchoalveolar lavage fluid (BALF). The collected bronchoalveolar lavage fluid was centrifuged at 3000 rpm for 10 minutes, and the supernatant was used to measure physiologically active substances (IL-4, and IL-5), and the pellets were used to measure the number of inflammatory cells.
The IgE concentration in the separated serum was measured using IgE enzyme-linked immonosorbent assay (ELISA, Komabiotech Inc.), and the physiologically active substances (interleukin-4 (IL-4) and interleukin-5 (IL-5)) in the isolated bronchoalveolar lavage fluid were measured using an enzyme-linked immonosorbent assay (ELISA, IL-4: Enzo # ADI-900-043, IL-5: R&D system # M5000) corresponding to each substance. The results of the measurement are shown in Table 14 below, and the ability of each extract to inhibit IgE secretion was calculated in the same manner as equation 4 shown in Example 3.
In addition, the bronchoalveolar lavage fluid pellets were re-dissolved in 0.5 mL of phosphate buffered saline, and 0.1 mL of the solution was added to each well of a 96-well plate and centrifuged at 800 rpm for 5 minutes to attach the cells to the bottom (3 wells per sample). Then, each sample was stained with Diff Quik staining solution (Sysmex), and photographed with a microscope at 2-6 random sites. About 200 cells per sample were counted to calculate the percentage (%) of inflammatory cells of each group. The total number of inflammatory cells was measured with a microscope using a hematocytometer, and the number of basophils was calculated using the percentage (%) of each inflammatory cells, and is shown in FIG. 1. Statistical processing was performed using an SPSS program, and a Levene test was performed for a test for equal variance, and significance was tested by one-way analysis (ANOVA).

Compound: C[C@@H]1C[C@H]2[C@@H]3CCC4=CC(=O)C=C[C@]4(C)[C@@]3(F)[C@@H](O)C[C@]2(C)[C@@]1(O)C(=O)CO [Dexamethasone]
- inhibition at 5 µg/mL ([1]; U266B1, 5 μg/mL, organic solvent extracts and fractions, Table 8, read-out: IgE secretion inhibition (%) (n = 3, Mean ± SE)): 4 ± 3.4%
- inhibition at 5 µg/mL ([1]; U266B1, concentration of test group 5 μg/mL, Table 6, read-out: IgE secretion inhibition (%) (n = 4, Mean ± SE)): 8 ± 15%
- Degranulation inhibition (%) (n = 3, Mean ± SE) ([2]; MC/9, 10 μg/mL, Table 11): 35 ± 0.2%
- Inhibition (%) of degranulation (n = 3, Mean ± SE) ([2]; MC/9, 20 μg/mL, Table 9): 64 ± 0.2%
- inhibition at 10 µg/mL ([3]; RBL-2H3, 10 μg/mL, Table 11, read-out: Degranulation inhibition (%) (n = 3, Mean ± SE)): 14 ± 3%
- inhibition at 20 µg/mL ([3]; RBL-2H3, 20 μg/mL, Table 9, read-out: Inhibition (%) of degranulation (n = 3, Mean ± SE)): 18 ± 1%
- Serum IgE concentration (ng/mL, Mean ± SE) [4]: 32.2 ± 4.4 ng/mL
- Inhibition of IgE secretion (%, Mean ± SE) ([4]; equation 4): 67.3 ± 6.3%
- Bronchoalveolar lavage fluid IL-4 (inhibition of IgE secretion, (%)), Mean ± SD [5]: (72.7 ± 3.8) %
- Bronchoalveolar lavage fluid IL-4 (pg/mL), Mean ± SD [5]: 56.0 ± 2.1 # pg/mL
- Bronchoalveolar lavage fluid IL-5 (inhibition of IgE secretion, (%)), Mean ± SD [5]: (98.7 ± 9.2) %
- Bronchoalveolar lavage fluid IL-5 (pg/mL), Mean ± SD [5]: 4.8 ± 3.2 # pg/mL
- Serum IgE concentration (ng/mL), Mean ± SD [5]: 85.8 ± 4.9 # ng/mL
- Serum IgE (inhibition of IgE secretion, (%)), Mean ± SD ([5]; equation 4): (25.0 ± 5.8) %
